US20250388575A1, “HETEROBIFUNCTIONAL COMPOUNDS AND METHODS OF TREATING DISEASE” (Halda Therapeutics OpCo, Inc., priority 2022, published 2025)
Read-outs that look alike come from different tables or passages of the source.

Columns and labels:
[1] = system: T-Rex 293 cell line SC3 cells lacking increased expression of androgen receptor protein; assay: Cellular growth inhibition, T-Rex 293 SC3 cells lacking increased androgen receptor expression (no doxycycline), CellTiter-Glo; assay type: cell-based; conditions: T-Rex 293 SC3 cells lacking increased androgen receptor expression (not exposed to doxycycline), 72 hours, CellTiter-Glo; read-out: GI50
Outline: (§1)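 SC3, a T-Rex 293 clone with doxycycline-inducible wild-type androgen receptor, was seeded in phenol red-free DMEM with 10% charcoal-dextran FBS, with or without 10 ng/mL doxycycline. Compound added at 24 h (0.5% DMSO) for 72 h at 37° C. CellTiter-Glo 2.0 luminescence; GI50 from four-parameter fit.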

[2] = system: T-Rex 293 cell line SC3 cells having increased expression of androgen receptor protein; assay: Cellular growth inhibition, T-Rex 293 SC3 cells with increased androgen receptor expression (doxycycline), CellTiter-Glo; assay type: cell-based; conditions: T-Rex 293 SC3 cells with increased androgen receptor expression (exposed to 10 ng/mL doxycycline), 72 hours, CellTiter-Glo; read-out: GI50
Outline: as §1

T47D cells = assay: Cellular growth inhibition assay for T47D cells, CellTiter-Glo; assay type: cell-based, human; conditions: 72 hours treatment, CellTiter-Glo 2.0
Protocol: T47D cells were purchased from American Type Cell Culture (ATCC Cat #HTB-133) and then seeded on poly-D-lysine coated, black clear-bottom 384-well plates at 3000/well in 25 μL Dulbecco's Modified Eagle Medium (DMEM) supplemented with 10% w/w Fetal bovine serum (FBS), 0.2 units/mL recombinant human insulin (Gibco Cat #12585014), and 1% w/w Pen-Strep. Pen-Strep is a commercially available mixture of penicillin G and streptomycin, which is used in mammalian cell culture media to prevent bacterial contamination. Dulbecco's Modified Eagle Medium (DMEM) supplemented with 10% w/w fetal bovine serum (FBS), 0.2 units/mL recombinant human insulin, and 1% w/w Pen-Strep is herein referred to as Treatment Medium. Following seeding of cells in the plates, the plates were spun at 300×g for 30 seconds, then equilibrated to room temperature for 30 minutes, and then deposited in a humidified tissue culture incubator maintained at 37° C. with 5% CO2.
At 24 hours after seeding of the cells, dilutions of test compound were prepared in DMSO and dissolved in Treatment Medium, to achieve a final DMSO concentration of 0.5% w/w, thereby providing the Test Compound Solution. A 25 μL aliquot of the Test Compound Solution was added to cells in the well plates. An equal volume of a solution containing DMSO and Treatment Medium was used as a negative control. Following treatment of cells with Test Compound Solution or said equal volume of a solution containing DMSO and Treatment Medium, the plates were spun at 300×g for 30 seconds, and then left in an incubator for 72 hours.
At the end of the treatment duration, cell viability was quantified with CellTiter-Glo 2.0 reagent (Promega Cat #G9243). For this purpose, plates were equilibrated to room temperature for 30 minutes, and then 25 μL of CellTiter-Glo 2.0 reagent was added to cells in the plate wells. Plates were then agitated on a shaker for two minutes at 500 rpm and subsequently incubated at room temperature for 10 minutes. Following incubation, the plates were spun at 3000×g for 30 seconds, then sealed with an optical adhesive cover, and luminescence readings were measured with an EnVision Plate Reader (Perkin Elmer).
Data was normalized using zero luminescence for baseline. A four-parameter non-linear regression curve fit was applied to dose-response data in GraphPad Prism data analysis software to determine the half-maximal growth inhibitory concentration (GI50) for each test compound.

VCaP cells = assay: Cellular growth inhibition assay for VCaP cells, CellTiter-Glo; assay type: cell-based, human; conditions: VCaP cells, 72 hours, CellTiter-Glo, read-out: GI50
Outline: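 GI50 values come from four-parameter curve fits of luminescence data normalized to a zero baseline. Compound, in medium with 0.5% DMSO, was added one day after plating and left for 72 h before CellTiter-Glo 2.0 addition.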

SMILES: Cn1cc(-c2cc(C(C)(C)O)ccc2CN2CC(CC3CCN(c4ccc(C(=O)NC5CCC(Oc6ccc(C#N)c(Cl)c6)CC5)nn4)CC3)C2)c2cc[nH]c2c1=O (stereo not shown) [I-248, N-[4-(3-chloro-4-cyano-phenoxy)cyclohexyl]-6-[4-[[1-[[4-(1-hydroxy-1-methyl-ethyl)-2-(6-methyl-7-oxo-1H-pyrrolo[2,3-c]pyridin-4-yl)phenyl]methyl]azetidin-3-yl]methyl]-1-piperidyl]pyridazine-3-carboxamide]
- GI50 [1]: 1500 to 3000 nM
- GI50 [2]: 500 to 1500 nM
- GI50 (T47D cells; Homo sapiens): 500 to 1500 nM
- GI50 (VCaP cells; Homo sapiens): > 3000 nM

SMILES: Cn1cc(-c2cc(C(C)(C)O)ccc2Oc2ccc(N3CC4(CCN(c5ccc(C(=O)N[C@H]6CC[C@H](Oc7ccc(C#N)c(Cl)c7)CC6)nn5)CC4)C3)cc2)c2cc[nH]c2c1=O [I-144]
- GI50 [1]: 500 to 1500 nM
- GI50 [2]: < 500 nM
- GI50 (T47D cells): < 500 nM
- GI50 (VCaP cells): < 500 nM

SMILES: Cn1cc(-c2cc(C3CCCS3(=O)=O)ccc2OC2CC(OCC3CCN(c4ccc(C(=O)NC5CCC(Oc6ccc(C#N)c(Cl)c6)CC5)nn4)CC3)C2)c2cc[nH]c2c1=O (stereo not shown) [I-245, N-[4-(3-chloro-4-cyano-phenoxy)cyclohexyl]-6-[4-[[3-[4-(1,1-dioxothiolan-2-yl)-2-(6-methyl-7-oxo-1H-pyrrolo[2,3-c]pyridin-4-yl)phenoxy]cyclobutoxy]methyl]-1-piperidyl]pyridazine-3-carboxamide]
- GI50 [1]: < 500 nM
- GI50 [2]: < 500 nM
- GI50 (T47D cells; Homo sapiens): < 500 nM
- GI50 (VCaP cells; Homo sapiens): < 500 nM

SMILES: Cn1cc(-c2cc(C(C)(C)O)ccc2Oc2c(F)cc(CCC3CCN(c4ccc(C(=O)N[C@H]5CC[C@H](Oc6ccc(C#N)c(Cl)c6)CC5)nn4)CC3)cc2F)c2cc[nH]c2c1=O [I-115]
- GI50 [1]: > 3000 nM
- GI50 [2]: < 500 nM
- GI50 (T47D cells): < 500 nM
- GI50 (VCaP cells): < 500 nM

SMILES: Cn1cc(-c2cc(C(C)(C)O)ccc2Oc2ccc(CCOC3CCN(c4ccc(C(=O)N[C@H]5CC[C@H](Oc6ccc(C#N)c(Cl)c6)CC5)nn4)CC3)c(F)c2)c2cc[nH]c2c1=O [I-132]
- GI50 [1]: > 3000 nM
- GI50 [2]: < 500 nM
- GI50 (T47D cells; Homo sapiens): < 500 nM
- GI50 (VCaP cells; Homo sapiens): < 500 nM

SMILES: Cn1cc(-c2cc(C(C)(C)O)ccc2Oc2ccc(N3CC(OC4CN(c5ccc(C(=O)N[C@H]6CC[C@H](Oc7ccc(C#N)c(Cl)c7)CC6)nn5)C4)C3)cc2)c2cc[nH]c2c1=O [I-150]
- GI50 [1]: < 500 nM
- GI50 [2]: < 500 nM
- GI50 (T47D cells; Homo sapiens): < 500 nM
- GI50 (VCaP cells; Homo sapiens): < 500 nM

SMILES: CCS(=O)(=O)c1ccc(Oc2ccc(N3CC(C4CCN(c5ccc(C(=O)N[C@H]6CC[C@H](Oc7ccc(C#N)c(Cl)c7)CC6)nn5)CC4)C3)cc2)c(-c2cn(C)c(=O)c3[nH]ccc23)c1 [I-91]
- GI50 [1]: < 500 nM
- GI50 [2]: < 500 nM
- GI50 (T47D cells): < 500 nM
- GI50 (VCaP cells): < 500 nM

SMILES: CCS(=O)(=O)c1ccc(Oc2ccc(CN3CC4(CCN(c5ccc(C(=O)N[C@H]6CC[C@H](Oc7ccc(C#N)c(Cl)c7)CC6)nn5)CC4)C3)c(F)c2)c(-c2cn(C)c(=O)c3[nH]ccc23)c1 [I-78]
- GI50 [1]: < 500 nM
- GI50 [2]: < 500 nM
- GI50 (T47D cells; Homo sapiens): < 500 nM
- GI50 (VCaP cells; Homo sapiens): < 500 nM

SMILES: CCS(=O)(=O)c1ccc(Oc2ccc(CCCC3CCN(c4ccc(C(=O)N[C@H]5CC[C@H](Oc6ccc(C#N)c(Cl)c6)CC5)nn4)CC3)cc2)c(-c2cn(C)c(=O)c3[nH]ccc23)c1 [I-61]
- GI50 [1]: < 500 nM
- GI50 [2]: < 500 nM
- GI50 (T47D cells; Homo sapiens): < 500 nM
- GI50 (VCaP cells; Homo sapiens): < 500 nM

SMILES: Cn1cc(-c2cc(C(C)(C)O)ccc2Oc2ccc(CCC3CC4(C3)CN(c3ccc(C(=O)N[C@H]5CC[C@H](Oc6ccc(C#N)c(Cl)c6)CC5)nn3)C4)cc2)c2cc[nH]c2c1=O [I-126]
- GI50 [1]: < 500 nM
- GI50 [2]: < 500 nM
- GI50 (T47D cells): < 500 nM
- GI50 (VCaP cells): < 500 nM

SMILES: Cn1cc(-c2cc(C(C)(C)O)ccc2Oc2cc(F)c(CCC3CCN(c4ccc(C(=O)N[C@H]5CC[C@H](Oc6ccc(C#N)c(Cl)c6)CC5)nn4)CC3)c(F)c2)c2cc[nH]c2c1=O [I-114]
- GI50 [1]: > 3000 nM
- GI50 [2]: < 500 nM
- GI50 (T47D cells): 1500 to 3000 nM
- GI50 (VCaP cells): < 500 nM

SMILES: Cn1cc(-c2cc(C(C)(C)O)ccc2Oc2ccc(C3CN(C4CCN(c5ccc(C(=O)N[C@H]6CC[C@H](Oc7ccc(C#N)c(Cl)c7)CC6)nn5)CC4)C3)cc2)c2cc[nH]c2c1=O [I-254]
- GI50 [1]: 500 to 1500 nM
- GI50 [2]: < 500 nM
- GI50 (T47D cells; Homo sapiens): 1500 to 3000 nM
- GI50 (VCaP cells; Homo sapiens): < 500 nM

SMILES: CCS(=O)(=O)Cc1ccc(Oc2cccc(OCCOC3CCN(c4ncc(C(=O)N[C@H]5CC[C@H](Oc6ccc(C#N)c(Cl)c6)CC5)cn4)CC3)c2)c(-c2cn(C)c(=O)c3[nH]ccc23)c1 [I-152]
- GI50 [1]: < 500 nM
- GI50 [2]: < 500 nM
- GI50 (T47D cells; Homo sapiens): < 500 nM
- GI50 (VCaP cells; Homo sapiens): < 500 nM

SMILES: CCS(=O)(=O)c1ccc(Oc2ccc(CCC3CCN(c4ccc(C(=O)N[C@H]5CC[C@H](Oc6ccc(C#N)c(Cl)c6)CC5)nn4)CC3)c(OC)c2)c(-c2cn(C)c(=O)c3[nH]ccc23)c1 [I-82]
- GI50 [1]: < 500 nM
- GI50 [2]: < 500 nM
- GI50 (T47D cells): < 500 nM
- GI50 (VCaP cells): < 500 nM

SMILES: CCS(=O)(=O)Cc1ccc(Oc2ccc(CCCCC3CCN(c4ccc(C(=O)N[C@H]5CC[C@H](Oc6ccc(C#N)c(Cl)c6)CC5)nn4)CC3)cc2)c(-c2cn(C)c(=O)c3[nH]ccc23)c1 [I-157]
- GI50 [1]: < 500 nM
- GI50 [2]: < 500 nM
- GI50 (T47D cells): < 500 nM
- GI50 (VCaP cells): < 500 nM

SMILES: CCS(=O)(=O)c1ccc(C(F)(F)c2ccc(CCC3CCN(c4ccc(C(=O)NC5CCC(Oc6ccc(C#N)c(Cl)c6)CC5)nn4)CC3)cc2)c(-c2cn(C)c(=O)c3[nH]ccc23)c1 (stereo not shown) [I-251, N-((1r,4r)-4-(3-chloro-4-cyanophenoxy)cyclohexyl)-6-(4-(4-((4-(ethylsulfonyl)-2-(6-methyl-7-oxo-6,7-dihydro-1H-pyrrolo[2,3-c]pyridin-4-yl)phenyl)difluoromethyl)phenethyl)piperidin-1-yl)pyridazine-3-carboxamide]
- GI50 [1]: > 3000 nM
- GI50 [2]: < 500 nM
- GI50 (T47D cells): < 500 nM
- GI50 (VCaP cells): > 3000 nM

SMILES: CCS(=O)(=O)Nc1ccc(Oc2cccc(COC3CCN(c4ccc(C(=O)N[C@H]5CC[C@H](Oc6ccc(C#N)c(Cl)c6)CC5)nn4)CC3)c2F)c(-c2cn(C)c(=O)c3[nH]ccc23)c1 [I-26]
- GI50 [1]: > 3000 nM
- GI50 [2]: < 500 nM
- GI50 (T47D cells; Homo sapiens): < 500 nM
- GI50 (VCaP cells; Homo sapiens): < 500 nM

SMILES: CCS(=O)(=O)c1ccc(Oc2ccc(CCCC3C4CN(c5ccc(C(=O)N[C@H]6CC[C@H](Oc7ccc(C#N)c(Cl)c7)CC6)nn5)CC34)cc2)c(-c2cn(C)c(=O)c3[nH]ccc23)c1 (stereo partly shown) [I-71]
- GI50 [1]: < 500 nM
- GI50 [2]: < 500 nM
- GI50 (T47D cells; Homo sapiens): < 500 nM
- GI50 (VCaP cells; Homo sapiens): < 500 nM

SMILES: Cn1cc(-c2cc(C(C)(C)O)ccc2Oc2ccc(N3CC(CC4CCN(c5ccc(C(=O)N[C@H]6CC[C@H](Oc7ccc(C#N)c(Cl)c7)CC6)nn5)CC4)C3)cc2)c2cc[nH]c2c1=O [I-147]
- GI50 [1]: > 3000 nM
- GI50 [2]: < 500 nM
- GI50 (T47D cells; Homo sapiens): < 500 nM
- GI50 (VCaP cells; Homo sapiens): < 500 nM

SMILES: CCS(=O)(=O)c1ccc(Oc2ccc(CCC3CC4(C3)CN(c3ccc(C(=O)N[C@H]5CC[C@H](Oc6ccc(C#N)c(Cl)c6)CC5)nn3)C4)cc2)c(-c2cn(C)c(=O)c3[nH]ccc23)c1 [I-67]
- GI50 [1]: < 500 nM
- GI50 [2]: < 500 nM
- GI50 (T47D cells): < 500 nM
- GI50 (VCaP cells): < 500 nM

SMILES: CCS(=O)(=O)c1ccc(Oc2ccc(CCC3CCN(c4ccc(C(=O)N[C@H]5CC[C@H](Oc6ccc(C#N)c(Cl)c6)CC5)nn4)CC3)c(C#N)c2)c(-c2cn(C)c(=O)c3[nH]ccc23)c1 [I-79]
- GI50 [1]: > 3000 nM
- GI50 [2]: < 500 nM
- GI50 (T47D cells): 500 to 1500 nM
- GI50 (VCaP cells): < 500 nM

SMILES: Cn1cc(-c2cc(C(C)(C)O)ccc2Oc2ccc(CC3CC4(CCN(c5ccc(C(=O)N[C@H]6CC[C@H](Oc7ccc(C#N)c(Cl)c7)CC6)nn5)CC4)C3)cc2)c2cc[nH]c2c1=O [I-130]
- GI50 [1]: < 500 nM
- GI50 [2]: < 500 nM
- GI50 (T47D cells; Homo sapiens): < 500 nM
- GI50 (VCaP cells; Homo sapiens): < 500 nM
